According to article PMC6210068 (ACS Omega, 2018):

Tests used:
DOR = DOR (Homo sapiens, UniProt P41143); assay: Radioligand binding at DOR
KOR = KOR (Homo sapiens, UniProt P41145); assay: biochemical; assay type: binding; conditions: for Ki: KOR, [3H]U69593, mean ± SEM, N = 2–4
MOR = MOR (Homo sapiens, UniProt P35372); assay: biochemical; assay type: binding
rat kidney TSPO = rat kidney TSPO (Rattus norvegicus, UniProt P16257); assay: Radioligand binding at TSPO; conditions: for Ki: TSPO, rat TSPO, [3H]PK11195
hDAT = hDAT (Homo sapiens, UniProt Q01959); assay: Radioligand binding at DAT; conditions: 10 μM; [3H]WIN35428; negative = enhanced radioligand binding
hA3AR = target: T1, hA3AR (Homo sapiens, UniProt P0DMS8); assay: A3AR binding
T1 sequence (P0DMS8 1-318): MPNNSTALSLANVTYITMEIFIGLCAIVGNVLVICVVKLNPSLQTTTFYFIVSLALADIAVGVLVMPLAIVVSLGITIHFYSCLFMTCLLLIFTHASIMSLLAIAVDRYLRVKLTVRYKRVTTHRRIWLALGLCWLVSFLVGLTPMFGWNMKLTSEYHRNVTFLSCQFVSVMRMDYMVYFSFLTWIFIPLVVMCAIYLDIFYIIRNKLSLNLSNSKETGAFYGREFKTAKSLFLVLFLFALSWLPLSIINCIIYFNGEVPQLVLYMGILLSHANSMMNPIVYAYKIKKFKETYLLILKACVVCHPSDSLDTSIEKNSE

Chain of hDAT (Q01959 whole entry): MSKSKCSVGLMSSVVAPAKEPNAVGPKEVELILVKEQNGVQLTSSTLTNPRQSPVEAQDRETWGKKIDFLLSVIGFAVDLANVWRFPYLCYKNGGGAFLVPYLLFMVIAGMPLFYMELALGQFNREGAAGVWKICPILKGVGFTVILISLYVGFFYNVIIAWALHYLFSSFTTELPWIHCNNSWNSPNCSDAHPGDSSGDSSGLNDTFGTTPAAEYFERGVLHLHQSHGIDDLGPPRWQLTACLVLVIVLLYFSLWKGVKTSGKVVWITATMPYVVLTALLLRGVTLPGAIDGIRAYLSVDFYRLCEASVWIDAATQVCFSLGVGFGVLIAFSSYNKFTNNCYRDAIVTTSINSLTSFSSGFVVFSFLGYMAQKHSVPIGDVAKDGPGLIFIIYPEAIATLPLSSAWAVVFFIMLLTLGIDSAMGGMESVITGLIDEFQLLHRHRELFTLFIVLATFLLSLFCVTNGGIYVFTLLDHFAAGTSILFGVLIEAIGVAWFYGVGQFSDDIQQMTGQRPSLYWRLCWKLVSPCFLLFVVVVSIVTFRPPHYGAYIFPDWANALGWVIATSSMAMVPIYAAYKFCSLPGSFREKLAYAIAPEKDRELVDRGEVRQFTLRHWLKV
Chain of DOR (P41143 whole entry): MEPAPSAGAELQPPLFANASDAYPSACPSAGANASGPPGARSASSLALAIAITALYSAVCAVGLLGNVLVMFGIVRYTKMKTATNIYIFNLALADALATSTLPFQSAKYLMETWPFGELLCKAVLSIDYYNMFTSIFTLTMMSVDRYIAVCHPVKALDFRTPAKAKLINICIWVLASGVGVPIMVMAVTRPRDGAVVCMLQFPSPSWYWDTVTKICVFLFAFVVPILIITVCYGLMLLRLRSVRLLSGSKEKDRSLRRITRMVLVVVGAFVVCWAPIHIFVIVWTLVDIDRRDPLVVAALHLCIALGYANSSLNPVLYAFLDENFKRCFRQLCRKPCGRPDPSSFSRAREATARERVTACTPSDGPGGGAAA
Chain of MOR (P35372 whole entry): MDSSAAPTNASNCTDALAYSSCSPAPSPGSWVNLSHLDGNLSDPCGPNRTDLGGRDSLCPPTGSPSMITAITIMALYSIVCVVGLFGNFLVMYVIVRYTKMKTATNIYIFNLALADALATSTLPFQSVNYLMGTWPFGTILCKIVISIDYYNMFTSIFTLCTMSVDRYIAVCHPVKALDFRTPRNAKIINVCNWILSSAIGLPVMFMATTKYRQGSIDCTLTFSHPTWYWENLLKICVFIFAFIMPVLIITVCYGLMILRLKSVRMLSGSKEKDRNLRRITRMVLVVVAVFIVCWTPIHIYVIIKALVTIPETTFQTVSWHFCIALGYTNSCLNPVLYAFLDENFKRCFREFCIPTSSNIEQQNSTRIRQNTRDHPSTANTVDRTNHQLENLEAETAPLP
Chain of KOR (P41145 whole entry): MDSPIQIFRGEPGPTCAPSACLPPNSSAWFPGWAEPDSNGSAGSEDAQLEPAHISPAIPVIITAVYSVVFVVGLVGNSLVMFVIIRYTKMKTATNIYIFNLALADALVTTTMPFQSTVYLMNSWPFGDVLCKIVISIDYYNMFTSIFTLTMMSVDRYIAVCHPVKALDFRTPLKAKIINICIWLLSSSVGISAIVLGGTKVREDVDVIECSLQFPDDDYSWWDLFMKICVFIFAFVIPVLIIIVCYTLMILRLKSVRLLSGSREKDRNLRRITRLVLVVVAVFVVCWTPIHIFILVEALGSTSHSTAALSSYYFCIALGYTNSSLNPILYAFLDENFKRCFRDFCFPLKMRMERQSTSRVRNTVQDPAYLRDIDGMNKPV
Chain of rat kidney TSPO (P16257 whole entry): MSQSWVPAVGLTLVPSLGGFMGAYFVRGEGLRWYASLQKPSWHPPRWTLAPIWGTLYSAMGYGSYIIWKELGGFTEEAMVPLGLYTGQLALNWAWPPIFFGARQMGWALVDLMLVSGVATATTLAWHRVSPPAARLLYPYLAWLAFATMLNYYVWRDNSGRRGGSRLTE

Compound	Ki (KOR) [nM]	Ki (rat kidney TSPO) [nM]	DAT, inhibition, % of control at 10 μM (hDAT)	DOR, inhibition of radioligand binding at 10 μM (class) (DOR; Table 2)	MOR, inhibition of radioligand binding at 10 μM (class) (MOR; Table 2)	DOR, inhibition of radioligand binding at 10 μM (class) (DOR; Table 1)	also measured
CCOC(=O)[C@@]12C[C@@H]1[C@@H](n1ccc3c(NCCc4ccccc4)nc(C#Cc4ccccc4)nc31)[C@@H]1OC(C)(C)O[C@@H]12 [compound 82, Ethyl(3aR,3bS,4aS,5R,5aS)-2,2-dimethyl-5-(4-(phenethylamino)-2-(phenylethynyl)-7H-pyrrolo[2,3-d]pyrimidin-7-yl)tetrahydrocyclopropa[3,4]cyclopenta[1,2-d][1,3]dioxole-3b(3aH)-carboxylate]	217 ± 100	> 10000	–24%	–	–	–	Ki (DOR): 881 ± 158 nM; Ki (MOR): > 10000 nM; Ki (hA3AR): 905 ± 144 nM
CNc1nc(C#Cc2ccc(Cl)s2)nc2c1ncn2[C@H]1[C@H](O)[C@H](O)[C@]2(C(=O)OCCC(C)C)C[C@H]12 [compound 33]	1090 ± 320	> 10000	–196 ± 58%	^d (<30% inhibition of radioligand binding at 10 μM)	^d (<30% inhibition of radioligand binding at 10 μM)	–	–
O[C@@H]1[C@H](O)[C@@H]2C[C@@H]2[C@H]1n1cnc2c(NCC(c3ccccc3)c3ccccc3)nc(C#Cc3ccccc3)nc21 [compound 53]	–	3570 ± 1820	17%	–	–	–	DOR, inhibition of radioligand binding at 10 μM (class) (DOR; Table 4): ^g (<30% inhibition of radioligand binding at 10 μM)
CCCCOC(=O)[C@@]12C[C@@H]1[C@@H](n1cnc3c(NC)nc(C#Cc4ccc(Cl)s4)nc31)[C@H](O)[C@@H]2O [compound 32]	1210 ± 100	> 10000	–285%	^d (<30% inhibition of radioligand binding at 10 μM)	^d (<30% inhibition of radioligand binding at 10 μM)	–	–
Ala2-MePhe4-Glyol5-Enkephalin [compound 99, reference compound]	–	–	–	–	–	–	Kd (MOR; read-out: radioligand Kd, MOR): 1.73 ± 0.14 nM
CNc1nc(C#Cc2ccc(Cl)s2)nc2c1ncn2[C@H]1[C@H](O)[C@H](O)[C@]2(C(=O)OCCC3CCCCC3)C[C@H]12 [compound 34]	> 10000	–	<20%	^c (30–50% inhibition of radioligand binding at 10 μM)	^d (<30% inhibition of radioligand binding at 10 μM)	–	TSPO, inhibition of radioligand binding at 10 μM (class) (rat kidney TSPO; Table 2): ^c (30–50% inhibition of radioligand binding at 10 μM); Ki (hA3AR): 334 ± 132 nM
CNC(=O)[C@@]12C[C@@H]1[C@@H](n1ccc3c(NC)ncnc31)[C@H](O)[C@@H]2O [compound 17]	–	–	–14%	–	–	^e (30–50% inhibition of radioligand binding at 10 μM)	TSPO, inhibition of radioligand binding at 10 μM (class) (rat kidney TSPO; Table 1): ^e (30–50% inhibition of radioligand binding at 10 μM); Ki (hA3AR): 498 ± 46 nM
O[C@@H]1[C@H](O)[C@@H]2C[C@@H]2[C@H]1n1ccc2c(NC(C3CC3)C3CC3)nc(I)nc21 [compound 58, (1R,2R,3S,4R,5S)-4-(4-((Dicyclopropylmethyl)amino)-2-iodo-7H-pyrrolo[2,3-d]pyrimidin-7-yl)bicyclo[3.1.0]hexane-2,3-diol]	–	–	–	–	–	–	DOR, inhibition of radioligand binding at 10 μM (class) (DOR; Table 5): ^e (<30% inhibition of radioligand binding at 10 μM); KOR, inhibition of radioligand binding at 10 μM (class) (KOR; Table 5): ^e (<30% inhibition of radioligand binding at 10 μM); MOR, inhibition of radioligand binding at 10 μM (class) (MOR; Table 5): ^e (<30% inhibition of radioligand binding at 10 μM); TSPO, inhibition of radioligand binding at 10 μM (class) (rat kidney TSPO; Table 5): ^e (<30% inhibition of radioligand binding at 10 μM); Ki (hA3AR): 5310 ± 1310 nM
CNC(=O)[C@H]1O[C@@H](n2cnc3c(NC)nc(C#Cc4ccc(Cl)s4)nc32)[C@H](O)[C@@H]1O [compound 45]	–	–	–321%	–	–	–	KOR, inhibition of radioligand binding at 10 μM (class) (KOR; Table 3): ^e (<30% inhibition of radioligand binding at 10 μM)
O[C@@H]1[C@H](O)[C@@H]2C[C@@H]2[C@H]1n1cnc2c(NCc3cccc(Cl)c3)nc(C#Cc3ccc(F)c(F)c3)nc21 [compound 3]	–	–	16%	–	–	–	DOR, inhibition of radioligand binding at 10 μM (class) (DOR; Table 4): ^g (<30% inhibition of radioligand binding at 10 μM)
CNc1nc(C#Cc2ccccc2)nc2c1ncn2[C@H]1[C@H](O)[C@H](O)[C@@H]2C[C@@H]21 [compound 49]	–	–	–213%	–	–	–	DOR, inhibition of radioligand binding at 10 μM (class) (DOR; Table 4): ^g (<30% inhibition of radioligand binding at 10 μM); TSPO, inhibition of radioligand binding at 10 μM (class) (rat kidney TSPO; Table 4): ^f (30–50% inhibition of radioligand binding at 10 μM)
O[C@@H]1[C@H](O)[C@@H]2C[C@@H]2[C@H]1n1cnc2c(NCc3cccc(Cl)c3)ncnc21 [compound 48]	–	–	–2%	–	–	–	DOR, inhibition of radioligand binding at 10 μM (class) (DOR; Table 4): ^g (<30% inhibition of radioligand binding at 10 μM); TSPO, inhibition of radioligand binding at 10 μM (class) (rat kidney TSPO; Table 4): ^g (<30% inhibition of radioligand binding at 10 μM)
CNc1nc(C#Cc2ccc(Cl)s2)nc2c1ncn2[C@H]1[C@H](O)[C@H](O)[C@]2(C(=O)OCCc3ccccc3)C[C@H]12 [compound 36]	3670 ± 1640	–	<20%	^d (<30% inhibition of radioligand binding at 10 μM)	^d (<30% inhibition of radioligand binding at 10 μM)	–	TSPO, inhibition of radioligand binding at 10 μM (class) (rat kidney TSPO; Table 2): ^d (<30% inhibition of radioligand binding at 10 μM); Ki (hA3AR): 114 ± 64 nM
CNc1nc(C#Cc2ccc(Cl)s2)nc2c1ncn2[C@H]1[C@H](O)[C@H](O)[C@]2(C(=O)OCCCc3ccccc3)C[C@H]12 [compound 37]	8920 ± 1080	1090 ± 290	<20%	^d (<30% inhibition of radioligand binding at 10 μM)	^d (<30% inhibition of radioligand binding at 10 μM)	–	Ki (hA3AR): 132 ± 68 nM

Further lines, with some results ahead:

Ki (KOR) [nM]	Ki (rat kidney TSPO) [nM]	DAT, inhibition, % of control at 10 μM (hDAT)	Compound	DOR, inhibition of radioligand binding at 10 μM (class) (DOR; Table 2)	MOR, inhibition of radioligand binding at 10 μM (class) (MOR; Table 2)	DOR, inhibition of radioligand binding at 10 μM (class) (DOR; Table 1)	also measured
–	–	–211%	CNC(=O)[C@@]12C[C@@H]1[C@@H](n1cnc3c(NC)nc(C#Cc4ccccc4)nc31)[C@H](O)[C@@H]2O [compound 12]	–	–	^e (30–50% inhibition of radioligand binding at 10 μM)	TSPO, inhibition of radioligand binding at 10 μM (class) (rat kidney TSPO; Table 1): ^e (30–50% inhibition of radioligand binding at 10 μM)
–	–	3%	CNC(=O)[C@@]12C[C@@H]1[C@@H](n1cnc3c(NCc4cccc(Cl)c4)nc(Cl)nc31)[C@H](O)[C@@H]2O [compound 5]	–	–	^e (30–50% inhibition of radioligand binding at 10 μM)	TSPO, inhibition of radioligand binding at 10 μM (class) (rat kidney TSPO; Table 1): ^f (<30% inhibition of radioligand binding at 10 μM)
~400	–	<20%	CNc1nc(C#Cc2ccc(Cl)s2)nc2c1ncn2[C@H]1[C@H](O)[C@H](O)[C@]2(C(=O)OC(C)C)C[C@H]12 [compound 31]	^d (<30% inhibition of radioligand binding at 10 μM)	^d (<30% inhibition of radioligand binding at 10 μM)	–	KOR, inhibition of radioligand binding at 10 μM (class) (KOR; Table 2): ^d (<30% inhibition of radioligand binding at 10 μM); TSPO, inhibition of radioligand binding at 10 μM (class) (rat kidney TSPO; Table 2): ^d (<30% inhibition of radioligand binding at 10 μM)
–	~300	50%	CNC(=O)[C@@]12C[C@@H]1[C@@H](n1cnc3c(NCc4cccc(Cl)c4)nc(C#Cc4ccccc4Cl)nc31)[C@H](O)[C@@H]2O [compound 8]	–	–	f (<30% inhibition of radioligand binding at 10 μM)	–
–	–	–50%	CNc1nc(C#Cc2ccc(Cl)s2)nc2c1ncn2[C@H]1[C@H](O)[C@H](O)[C@]2(C(=O)O)C[C@H]12 [compound 38]	^d (<30% inhibition of radioligand binding at 10 μM)	^d (<30% inhibition of radioligand binding at 10 μM)	–	KOR, inhibition of radioligand binding at 10 μM (class) (KOR; Table 2): ^d (<30% inhibition of radioligand binding at 10 μM); TSPO, inhibition of radioligand binding at 10 μM (class) (rat kidney TSPO; Table 2): ^d (<30% inhibition of radioligand binding at 10 μM)
–	684 ± 175	–	CNC(=O)[C@@]12C[C@@H]1[C@@H](n1cnc3c(NC)nc(C#Cc4ccc(Cl)s4)nc31)[C@H](O)[C@@H]2O [compound 14]	–	–	^e (30–50% inhibition of radioligand binding at 10 μM)	–
–	–	–322%	CNC(=O)[C@@]12C[C@@H]1[C@@H](n1cnc3c(NC)nc(C#Cc4ccc(F)c(F)c4)nc31)[C@H](O)[C@@H]2O [compound 11]	–	–	^e (30–50% inhibition of radioligand binding at 10 μM)	TSPO, inhibition of radioligand binding at 10 μM (class) (rat kidney TSPO; Table 1): ^e (30–50% inhibition of radioligand binding at 10 μM)
–	–	–235%	CNC(=O)[C@@]12C[C@@H]1[C@@H](n1cnc3c(NC)nc(C#Cc4ccc(Br)s4)nc31)[C@H](O)[C@@H]2O [compound 15]	–	–	^e (30–50% inhibition of radioligand binding at 10 μM)	TSPO, inhibition of radioligand binding at 10 μM (class) (rat kidney TSPO; Table 1): ^f (<30% inhibition of radioligand binding at 10 μM)
–	–	1%	CNC(=O)[C@@]12C[C@@H]1[C@@H](n1cnc3c(NC)cc(C#Cc4ccc(Cl)s4)nc31)[C@H](O)[C@@H]2O [compound 16]	–	–	^e (30–50% inhibition of radioligand binding at 10 μM)	TSPO, inhibition of radioligand binding at 10 μM (class) (rat kidney TSPO; Table 1): ^e (30–50% inhibition of radioligand binding at 10 μM)
